molecular target: T1, p101/p110γ protein (PI3Kγ) (Homo sapiens, UniProt P48736); test: PI3Kγ In Vitro Kinase Assay; assay type: biochemical; conditions: purified recombinant p101/p110γ with G protein β1/γ2 subunits; 20 μM ATP, 25 μM PIP2; 20 minutes at room temperature; radioactive PIP3 readout
T1 construct: HA; made in house; host or cells: Spodoptera frugiperda (Sf9) cells, baculovirus coinfection
Description: Spodtera frugiperda cells, grown in ESF921 media, were coinfected with baculovirus expressing a glu-tagged […] and baculovirus expressing an HA-tagged p110γ, at a 3:1 ratio of p110 baculovirus to p110γ baculovirus. Sf9 cells were grown to 1×10^7 total cells/mL in 10L bioreactors and harvested 48-72 hours post infection. Samples of infected cells were then tested for expression of p101/p110γ PI3 kinase by immunoprecipitation and Western Blot analysis methods (see below).
To purify PI3Kγ, 4 volumes of room temperature hypotonic lysis buffer (1 mM MgCl2, 1 mM DTT, 5 mM EGTA, 1 mM Pefabloc, 0.5 μM aprotinin, […], 2 μM pepstatin, 5 μM E64, pH 8) per gram of cell paste, was poured onto frozen cell pellets with stirring, then lysed in a nitrogen “bomb” at 400 psi (599HC T316, Parr Instrument Co, Moline, Ill.). NaCl was added to 150 mM, and sodium cholate was added to 1% and mixed for another 45 minutes. The lysates were clarified by centrifugation for 25 minutes at 14,000 rpm. The lysates were then loaded over anti-glu-linked Protein-G Sepaharose beads (Covance Research Products, Richmond, Calif.) using 20 mL resin/50 g cell paste. The column was washed with 15 volumes of wash buffer (1 mM DTT, 0.2 mM EGTA, 1 mM Pefabloc, 0.5 μM aprotinin, 5 μM leupeptin, 2 μM pepstatin, 5 μM E64, 150 mM NaCl, 1% sodium cholate, pH 8). PI3Kγ was eluted with 6 column volumes of wash buffer that contain 100 μg/mL of a peptide that competes for binding of the glu tag. The column fractions with the eluted protein (determined by taking OD280 readings) were collected and dialyzed in 0.2 mM EGTA, 1 mM DTT, 1 mM Pefabloc, 5 μM leupeptin, 0.5% sodium cholate, 150 mM NaCl, and 50% glycerol, pH 8. The fractions were stored at −80° C. until further use.
Spodtera frugiperda cells were coinfected with baculovirus expressing a glu-tagged G protein β1 and baculovirus expressing a […] at a 1:1 ratio of glu-tagged G protein β1 baculovirus to G protein β2 baculovirus. Sf9 cells are grown in 10 L bioreactors and harvested 48-72 hours post infection. Samples of infected cells were tested for G protein β1/β2 expression by Western Blot analysis, as described below. Cell lysates were homogenized and loaded onto a column of glu-tagged beads as in Biological Example 1 and competed off the column with a glu peptide as described in Biological Example 1.
The inhibitory properties of the compounds in Table 1 were assayed in an in vitro PI3K assay. In a 96-well polypropylene plate, each well was spotted with 2 μL of 50 times the desired final concentration of compound in DMSO. Purified recombinant p101/p110γ protein (0.03 μg; ˜2.7 nM) and G protein β1/γ2 subunits (0.09 μg; −57.7 nM) for each reaction was combined in the assay buffer (30 mM HEPES, 100 mM NaCl, 1 mM EGTA, and 1 mM DTT). ATP and [γ-^32P-ATP] (0.09 μCi) were added to this mixture so that the final ATP concentration in the reaction was 20 μM. Lipid micelles were formed by sonicating phosphatidylinositol-4,5-diphosphate (PIP2), phosphatidylethanolamine (PE), and Na-cholate in the assay buffer for 10 minutes, adding MgCL2 and incubating on ice for 20 minutes, for final concentrations of 25 μM PIP2, 300 μM PE, 0.02% Na-cholate, and 10 mM MgCl2 in the reaction. The reactions were started by adding equal volumes lipid and enzyme mixture in a total volume of 50 μL, allowed to run for 20 minutes at room temperature, and stopped with 100 μL 75 mM H3PO4. The lipid product was transferred to a glass fiber filter plate and washed with 75 mM H3PO4 several times. The presence of radioactive lipid product (PIP3) was measured by adding Wallac Optiphase mix to each well and counting in a Wallac 1450 Trilux plate reader (PerkinElmer Life Sciences Inc., Boston, Mass. 02118). The IC50 for each compound tested is reported in μM in Table 1: […]

T1 sequence (P48736 whole entry, species assumed): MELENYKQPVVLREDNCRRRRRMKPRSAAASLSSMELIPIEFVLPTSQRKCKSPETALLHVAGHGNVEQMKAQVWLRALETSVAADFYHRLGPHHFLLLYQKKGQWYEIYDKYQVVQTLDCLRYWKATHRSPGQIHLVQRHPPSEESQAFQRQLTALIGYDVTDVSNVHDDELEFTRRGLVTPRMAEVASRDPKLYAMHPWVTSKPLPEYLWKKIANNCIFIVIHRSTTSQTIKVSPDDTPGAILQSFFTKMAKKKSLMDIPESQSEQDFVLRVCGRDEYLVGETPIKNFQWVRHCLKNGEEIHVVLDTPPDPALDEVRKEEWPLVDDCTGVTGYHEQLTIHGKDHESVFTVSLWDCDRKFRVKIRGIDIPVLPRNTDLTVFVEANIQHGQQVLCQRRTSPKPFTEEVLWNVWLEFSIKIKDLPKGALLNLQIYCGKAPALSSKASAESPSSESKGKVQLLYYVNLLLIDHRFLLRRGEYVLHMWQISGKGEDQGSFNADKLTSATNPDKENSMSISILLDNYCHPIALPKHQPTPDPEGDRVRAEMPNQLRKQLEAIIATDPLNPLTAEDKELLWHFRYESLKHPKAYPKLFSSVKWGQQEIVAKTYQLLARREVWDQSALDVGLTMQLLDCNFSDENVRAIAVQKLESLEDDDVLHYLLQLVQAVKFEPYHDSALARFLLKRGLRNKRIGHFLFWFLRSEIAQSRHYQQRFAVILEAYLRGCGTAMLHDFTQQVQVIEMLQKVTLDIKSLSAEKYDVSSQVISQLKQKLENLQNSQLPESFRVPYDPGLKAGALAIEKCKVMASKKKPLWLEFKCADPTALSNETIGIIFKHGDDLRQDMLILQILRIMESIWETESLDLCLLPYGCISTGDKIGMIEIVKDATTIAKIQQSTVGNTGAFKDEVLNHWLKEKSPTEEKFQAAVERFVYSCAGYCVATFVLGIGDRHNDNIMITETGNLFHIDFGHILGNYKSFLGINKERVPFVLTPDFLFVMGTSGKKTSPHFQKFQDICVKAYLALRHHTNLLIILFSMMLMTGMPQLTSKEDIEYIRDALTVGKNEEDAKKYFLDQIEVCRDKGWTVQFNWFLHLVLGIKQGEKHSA
T1 sequence (Q8WYR1 whole entry partner, species assumed): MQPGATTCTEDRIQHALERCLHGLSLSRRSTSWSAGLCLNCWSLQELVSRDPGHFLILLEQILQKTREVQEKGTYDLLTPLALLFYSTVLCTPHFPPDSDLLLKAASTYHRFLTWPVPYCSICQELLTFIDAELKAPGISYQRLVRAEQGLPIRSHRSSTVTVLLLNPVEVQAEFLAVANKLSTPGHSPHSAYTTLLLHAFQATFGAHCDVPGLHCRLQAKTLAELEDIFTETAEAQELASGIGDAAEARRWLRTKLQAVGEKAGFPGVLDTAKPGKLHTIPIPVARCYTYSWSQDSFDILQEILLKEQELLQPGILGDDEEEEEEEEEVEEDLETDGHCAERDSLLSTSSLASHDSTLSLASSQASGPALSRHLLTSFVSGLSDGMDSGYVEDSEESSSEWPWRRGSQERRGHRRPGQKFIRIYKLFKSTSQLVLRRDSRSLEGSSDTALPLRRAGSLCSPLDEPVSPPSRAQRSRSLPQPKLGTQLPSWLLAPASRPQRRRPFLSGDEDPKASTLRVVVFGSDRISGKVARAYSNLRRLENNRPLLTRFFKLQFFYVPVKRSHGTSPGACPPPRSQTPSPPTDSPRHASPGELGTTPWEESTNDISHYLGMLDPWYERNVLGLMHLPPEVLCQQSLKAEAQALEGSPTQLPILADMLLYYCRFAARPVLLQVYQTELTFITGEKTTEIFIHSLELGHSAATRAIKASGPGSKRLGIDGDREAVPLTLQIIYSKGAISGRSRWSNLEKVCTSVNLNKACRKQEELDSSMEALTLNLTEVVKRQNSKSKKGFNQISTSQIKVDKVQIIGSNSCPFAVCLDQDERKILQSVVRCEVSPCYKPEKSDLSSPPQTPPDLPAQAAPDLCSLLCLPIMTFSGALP

Molecule	IC50 [nM]
O=C1NC(=S)SC1=Cc1ccc2c(c1)N(C(=O)c1ccccc1)CCO2 [Example 1, 5-[4-(1-Phenyl-methanoyl)-3,4-dihydro-2H-benzo[1,4]oxazine-6-ylmethylene]-2-thioxo-thiazolidin-4-one]	56
COc1cc(CN2CCCOc3ccc(C=C4SC(=S)NC4=O)cc32)cc(OC)c1 [Example 6, 5-[9-(3,5-Dimethoxy-benzyl)-6,7,8,9-tetrahydro-5-oxa-9-aza-benzocyclohepten-2-ylmethylene]-2-thioxo-thiazolidin-4-one]	151
Cc1cc(C)cc(CN2CCCOc3ccc(C=C4SC(=S)NC4=O)cc32)c1 [Example 7, 5-[9-(3,5-Dimethyl-benzyl)-6,7,8,9-tetrahydro-5-oxa-9-aza-benzocyclohepten-2-ylmethylene]-2-thioxo-thiazolidin-4-one]	780
CCC(C(=O)N1CCOc2ccc(C=C3SC(=S)NC3=O)cc21)c1ccccc1 (stereo not shown) [Example 30, 5-[4-(2-Phenyl-butyryl)-3,4-dihydro-2H-1,4-benzoxazin-6-ylmethylene]-2-thioxo-thiazolidin-4-one]	735
4-(3,5-dimethyl-benzyl)-3,4-dihydro-2H-benzo[1,4]oxazine-6-ylmethylene]-2-thioxo-thiazolidin-4-one [Example 4]	650
O=C1NC(=S)SC1=Cc1ccc2c(c1)N(C(=O)C=Cc1ccccc1)CCO2 [Example 37, 5-[4-(3-Phenyl-acryloyl)-3,4-dihydro-2H-1,4-benzoxazin-6-ylmethylene]-2-thioxo-thiazolidin-4-one]	7
2-Thioxo-5-{9-[3-(3-trifluoromethyl-phenyl)-acryloyl]-6,7,8,9-tetrahydro-5-oxa-9-aza-benzocyclohepten-2-ylmethylene}-thiazolidin-4-one [Example 124]	4010
O=C1NC(=S)SC1=Cc1ccc2c(c1)N(C(=O)COCc1ccccc1)CCO2 [Example 39, 5-[4-(2-Benzyloxy-acetyl)-3,4-dihydro-2H-1,4-benzoxazin-6-ylmethylene]-2-thioxo-thiazolidin-4-one]	14
O=C1NC(=S)SC1=Cc1ccc2c(c1)N(C(=O)c1cccnc1)CCO2 [Example 13]	410
CCCCCCC(=O)N1CCOc2ccc(C=C3SC(=S)NC3=O)cc21 [Example 34, 5-(4-Heptanoyl-3,4-dihydro-2H-1,4-benzoxazin-6-ylmethylene)-2-thioxo-thiazolidin-4-one]	4
O=C1NC(=S)SC1=Cc1ccc2c(c1)N(C(=O)C1CCCC1)CCO2 [Example 33, 5-(4-Cyclopentanecarbonyl-3,4-dihydro-2H-1,4-benzoxazin-6-ylmethylene)-2-thioxo-thiazolidin-4-one]	14

Results, then the molecule that gave them:

IC50 [nM]	Molecule
25	CCCCCCCCC(=O)N1CCOc2ccc(C=C3SC(=S)NC3=O)cc21 [Example 98, 5-[4-(4-Nonanoyl)-3,4-dihydro-2H-1,4-benzoxazin-6-ylmethylene]-2-thioxo-thiazolidin-4-one]
179	CC(C)C(C)C(=O)N1CCOc2ccc(C=C3SC(=S)NC3=O)cc21 (stereo not shown) [Example 86, 5-[4-(2,3-Dimethyl-butyryl)-3,4-dihydro-2H-benzo[1,4]oxazin-6-ethylene]-2-thioxo-thiazolidin-4-one]
860	O=C1NC(=S)SC1=Cc1ccc2c(c1)N(C(=O)c1cc(Cl)sc1Cl)CCO2 [Example 51, 5-[4-(2,5-Dichloro-thiophene-3-carbonyl)-3,4-dihydro-2H-1,4-benzoxazin-6-ylmethylene]-2-thioxo-thiazolidin-4-one]
465	COc1ccc(C)cc1C(=O)N1CCOc2ccc(C=C3SC(=S)NC3=O)cc21 [Example 88, 5-[4-(2-Methoxy-5-methyl-benzoyl)-3,4-dihydro-2H-benzo[1,4]oxazin-6-ethylene]-2-thioxo-thiazolidin-4-one]
44	O=C1NC(=S)SC1=Cc1ccc2c(c1)N(C(=O)COc1ccc(Cl)cc1)CCO2 [Example 47, 5-{4-[2-(4-Chloro-phenoxy)-acetyl]-3,4-dihydro-2H-1,4-benzoxazin-6-ylmethylene}-2-thioxo-thiazolidin-4-one]
200	Cc1ccc(F)c(C(=O)N2CCOc3ccc(C=C4SC(=S)NC4=O)cc32)c1 [Example 89, 5-[4-(2-Fluoro-5-methyl-benzoyl)-3,4-dihydro-2H-benzo[1,4]oxazin-6-ethylene]-2-thioxo-thiazolidin-4-one]
18	COC(=O)CCCCCCC(=O)N1CCOc2ccc(C=C3SC(=S)NC3=O)cc21 [Example 44, 8-Oxo-8-[6-(4-oxo-2-thioxo-thiazolidin-5-ylidenemethyl)-2,3-dihydro-1,4-benzoxazin-4-yl]-octanoic acid methyl ester]
27	O=C1NC(=S)SC1=Cc1ccc2c(c1)N(C(=O)C1CCCCCC1)CCO2 [Example 83, 5-[4-Cycloheptanecarbonyl-3,4-dihydro-2H-benzo[1,4]oxazin-6-ethylene]-2-thioxo-thiazolidin-4-one]
12	O=C1NC(=S)SC1=Cc1ccc2c(c1)N(C(=O)CSc1ccccc1)CCO2 [Example 40, 5-[4-(2-Phenylsulfanyl-acetyl)-3,4-dihydro-2H-1,4-benzoxazin-6-ylmethylene]-2-thioxo-thiazolidin-4-one]
115	5-(9-Cyclopropanecarbonyl-6,7,8,9-tetrahydro-5-oxa-9-aza-benzocyclohepten-2-ylmethylene)-2-thioxo-thiazolidin-4-one [Example 104]
95	Cc1ccc(NC(=O)N2CCOc3ccc(C=C4SC(=S)NC4=O)cc32)cc1 [Example 57, 6-(4-Oxo-2-thioxo-thiazolidin-5-ylidenemethyl)-2,3-dihydro-1,4-benzoxazine-4-carboxylic acid p-tolylamide]
225	O=C1NC(=S)SC1=Cc1ccc2c(c1)N(C(=O)Nc1ccccc1OC(F)(F)F)CCO2 [Example 56, 6-(4-Oxo-2-thioxo-thiazolidin-5-ylidenemethyl)-2,3-dihydro-1,4-benzoxazine-4-carboxylic acid (2-trifluoromethoxy-phenyl)-amide]
245	O=C1NC(=S)SC1=Cc1ccc2c(c1)N(C(=O)c1ccno1)CCO2 [Example 49, 5-[4-(Isoxazole-5-carbonyl)-3,4-dihydro-2H-1,4-benzoxazin-6-ylmethylene]-2-thioxo-thiazolidin-4-one]
704	2-(4-Oxo-2-thioxo-thiazolidin-5-ylidenemethyl)-7,8-dihydro-6H-5-oxa-9-aza-benzocycloheptene-9-carboxylic acid p-tolyl ester [Example 107]
8	O=C1NC(=S)SC1=Cc1ccc2c(c1)N(C(=O)NC1CCCC1)CCO2 [Example 68, 6-(4-Oxo-2-thioxo-thiazolidin-5-ylidenemethyl)-2,3-dihydro-1,4-benzoxazine-4-carboxylic acid cyclopentylamide]
1320	2-(4-Oxo-2-thioxo-thiazolidin-5-ylidenemethyl)-7,8-dihydro-6H-5-oxa-9-aza-benzocycloheptene-9-carboxylic acid (3,5-dimethoxy-phenyl)-amide [Example 113]
1610	CC(C)(C)C(=O)N1CCOc2ccc(C=C3SC(=S)NC3=O)cc21 [Example 97, 5-[4-(2,2-Dimethyl-propionyl)-3,4-dihydro-2H-1,4-benzoxazin-6-ylmethylene]-2-thioxo-thiazolidin-4-one]

Source: US20040138199A1, “Benzoxazines and derivatives thereof as therapeutic agents” (priority 2002, published 2004)
